Results published in EP0106988A1, “Pharmacologically active lactam derivatives” (THE WELLCOME FOUNDATION LIMITED, priority 1982, dated 1984).

What was measured:
Assay type in all cases: in vivo
[1] = Modified trypsin hyperalgesic assay (THA); conditions: 1 h; analgesia; pain scores determined 60 minutes after trypsin injection
Description: The procedure described by Vinegar et al. in Eur. J] […] The analgesic agents were administered 30 minutes after the administration of trypsin. In addition, a modification of Vinegar's published assay was carried out, comprising the administration of analgesic agent preceding subplantar injectin of trypsin (0.10 ml) of 10% solution of trypsin in pyrogen-free water by 15 minutes. In both THA's, pain scores were determined 60 minutes after trypsin injection. The results of the modification was to increase the sensitivity of the THA to the mild analgesic action of the agents.

[2] = test system: rat; assay: Carrageenin pleurisy assay (CPA), acute anti-inflammatory activity; conditions: dose required to reduce the 3 hour exudate volume by 50%
Description: Following the procedure described by Vinegar et al. in Proc.Soc.Exp.Biol.Med. 151, 556, (1976), the actue anti-inflammatory activityof compounds of formula (I) was compared with that of known anti-inflammatory drugs in the rat. The average 3 hour exudate volume for each drug treated group was determined and the % inhibition relative to solvent-fed control animals calculated, the ED50 being the dose required to reduce the 3 hour exudate volume by 50%.

[3] = test system: rat; assay: Rat hot plate assay; conditions: po, 1 h, administered orally by gavage 60 min prior to testing, protected = no response within 18.3 seconds
Excerpt: The rat hot plate assay incorporated 2 modifications of the mouse hot plate assay originally described by Eddy et al, J. Pharmacol. Exp. Ther. 98, 121-137 (1950). The first modification was enlargement of the diameter of the cylindrical (water filled) copper plate to 25.0 cm to accommodate rats instead of mice.
The second modification was the use of a temperature controller to regulate a 250 watt infrared heat lamp which was activated via a thermistor probe attached to the undersurface of the top of the copper plate. The surface temperature was thus maintained at 45 + 1.0°C (N=28 measurements of the hot plate temperature under experimental conditions). The time in which a rat placed on the hotplate responded by lifting, shaking or licking either or its hind or forelimbs was recorded in tenths of a second.
Only animals responding in pretest within 6-13 seconds were used in the studies. Drugs were suspended in 0.5% sodium carboxymethylcellulose and administered orally, by gavage, in a volume of 1.00 ml/100 g.b wt. 60 min prior to testing. […] The reaction time of 18.3 seconds represented the sum of the mean protest times of 40 untreated rats plus the time of 3 standard deviations of the mean.ED50's and their standard errors were estimated from a graph of the dose-response curves using the method of Miller and Tainter (Proc.Soc.Exp.Biol.Med. 57, 261-262 (1944). Following this procedure the analgesic activity of the compounds of formula (I) was compared to that of standard analgesic drugs.

## C[C@@H]1CN(c2ccc3c(c2)OCO3)C(=O)[C@H]1C (relative stereo) [Example 4, trans-1-(1,3-benzodioxol-5-yl)-3,4-dimethyl-pyrrolidin-2-one]
[1]
  ED50: 46 mg/kg
[2]
  ED50: 75 mg/kg

## COc1ccc(OC)c(N2CCCC2=O)c1 [Example 6, 1-(2,5-dimethoxyphenyl)-pyrrolidin-2-one]
[2]
  ED50: 80 mg/kg

## CC1CCN(c2ccc3c(c2)OCO3)C1=O (stereo not shown) [Example 26, 1-(1,3-benzodioxol-5-yl)-3-methyl-pyrrolidin-2-one]
[2]
  ED50: 39 mg/kg

## C#CCOc1ccccc1N1CCCC1=O [Example 27, 1-(2-(propyl-yn-yloxy)phenyl)-pyrrolidin-2-one]
[1]
  ED50: 40 mg/kg
[2]
  ED50: 35 mg/kg

## CC1CC(=O)N(c2ccc3c(c2)OCO3)C1 (stereo not shown) [Example 1, 1-(1,3-benzodioxol-5-yl)-4-melhyl-pyrrolidin-2-one]
[1]
  ED50: 80 mg/kg
[2]
  ED50: 96 mg/kg
[3]
  ED50: 120 mg/kg

## CCOc1ccc(N2CCCC2=O)cc1OCC [Example 18, 1-(3,4-diethoxyphenyl)-pyrrolidin-2-one]
[2]
  ED50: 19 mg/kg

## O=C(O)COc1ccccc1N1CCCC1=O [Example 37, 2-(2-oxy-1-pyrrolidinyl)phenoxyacetic acid]
[2]
  ED50: 50 mg/kg

## COc1cc(OC)cc(N2CCCC2=O)c1 [Example 10, 1-(3,5-dimethoxyphenyl)-pyrrolidin-2-one]
[2]
  ED50: 95 mg/kg

## CCc1cccc(N2CCCC2=O)c1 [Example 20, 1-(3-ethylphenyl)-pyrrolidin-2-one]
[2]
  ED50: 78 mg/kg

## C#CC(C)Oc1ccccc1N1CCCC1=O (stereo not shown) [Example 31, 1-(2-(1-methyl-prop-2-yn-yl)oxyphenyl)-pyrrolidin-2-one]
[2]
  ED50: 39 mg/kg

## O=C(O)CCCNc1ccc2c(c1)OCO2 [Example 5, 4-(1,3-benzodioxol-5-yl)amino butyric acid]
[1]
  ED50: 60 mg/kg
[2]
  ED50: 42 mg/kg
[3]
  ED50: 120 mg/kg

## O=C1CCCN1c1ccc2[nH]ncc2c1 [Example 7, 1-(1H-indazol-5-yl)-pyrrolidin-2-one]
[1]
  ED50: 45 mg/kg
[2]
  ED50: 34 mg/kg
[3]
  ED50: 30 mg/kg

## O=C1CCCN1c1ccccn1 [Example 21, 1-(2-pyridyl)-pyrrolidin-2-one]
[2]
  ED50: 41 mg/kg

## C=CCOc1ccccc1N1CCCC1=O [Example 28, 1-(2-allyloxyphenyl)-pyrrolidin-2-one]
[2]
  ED50: 62 mg/kg
[3]
  ED50: 120 mg/kg

## C=CCOc1ccc(N2CCCC2=O)cc1 [Example 2, 1-(4-allyloxyphenyl)-pyrrolidin-2-one]
[2]
  ED50: 57 mg/kg

## Cc1cccnc1N1CCCC1=O [Example 24, 1-(3-methyl-2-pyridyl)-pyrrolidin-2-one]
[2]
  ED50: 29 mg/kg
